Where a SMILES comes first, the peptide text is derived from it. Bridges are numbered along the chain shown (N, C = ends). Roman numbers before positions name the chains, in order. [ ]: non-standard residue; d: D form. hLeu = CC(C)CC[C@H](N)C(=O)O
Target: T1, Interleukin-23 receptor (Homo sapiens, UniProt Q5VWK5)
T1 sequence (Q5VWK5 whole entry): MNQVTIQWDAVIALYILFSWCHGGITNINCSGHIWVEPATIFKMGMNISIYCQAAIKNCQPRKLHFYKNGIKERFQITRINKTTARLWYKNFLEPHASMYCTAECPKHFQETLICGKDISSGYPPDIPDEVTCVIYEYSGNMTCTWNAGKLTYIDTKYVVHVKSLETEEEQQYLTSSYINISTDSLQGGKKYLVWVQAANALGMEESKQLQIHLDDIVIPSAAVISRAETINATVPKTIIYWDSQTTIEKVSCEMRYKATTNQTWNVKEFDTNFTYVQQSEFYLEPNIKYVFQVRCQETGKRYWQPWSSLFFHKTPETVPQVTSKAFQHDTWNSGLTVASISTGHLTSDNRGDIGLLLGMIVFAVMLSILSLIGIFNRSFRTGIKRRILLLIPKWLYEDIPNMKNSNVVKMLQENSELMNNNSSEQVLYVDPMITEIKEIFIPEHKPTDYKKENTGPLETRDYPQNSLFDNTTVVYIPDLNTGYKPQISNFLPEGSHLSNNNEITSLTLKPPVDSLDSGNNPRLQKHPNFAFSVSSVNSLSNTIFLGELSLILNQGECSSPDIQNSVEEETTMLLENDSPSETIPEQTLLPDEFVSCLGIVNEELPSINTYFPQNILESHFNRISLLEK
Assay: Inhibition of interleukin-23 binding to human interleukin-23 receptor incubated for 2 hrs by competitive binding ELISA

| SMILES | IC50 [nM] |
| --- | --- |
| CC(=O)N[C@@H](CS)C(=O)N[C@@H](CCC(N)=O)C(=O)N[C@H](C(=O)N[C@@H](Cc1c[nH]c2ccccc12)C(=O)N[C@@H](CCC(N)=O)C(=O)N[C@@H](CS)C(=O)N[C@@H](Cc1ccc(O)cc1)C(=O)N[C@@H](Cc1ccc(Cl)c(Cl)c1)C(=O)N[C@@H](CCCNC(=N)N)C(=O)N[C@H](C(=O)N[C@@H](CC(N)=O)C(=O)NCC(=O)NCCOCC(=O)N[C@H](CCCCN)C(N)=O)C(C)C)[C@@H](C)O | > 30000 |
| CC(=O)N[C@H]1CCSC[C@@H](C(=O)N[C@@H](Cc2ccc(OCCN)cc2)C(=O)N[C@@H](Cc2ccc3ccccc3c2)C(=O)N[C@@](C)(CCCCN)C(=O)N[C@@H](CCC(=O)O)C(=O)N[C@@H](CC(N)=O)C(=O)NCC(N)=O)NC(=O)[C@H](CCC(N)=O)NC(=O)[C@H](CCCNCc2ccccc2)NC(=O)[C@H]([C@@H](C)O)NC(=O)[C@H](CCC(N)=O)NC1=O | > 3000 |
| CC(=O)NCC(=O)NCC(=O)NCC(=O)N[C@@H](CCC(=O)O)C(=O)N[C@@H](CS)C(=O)N[C@@H](CCC(=O)O)C(=O)N[C@@H](CC(N)=O)C(=O)N[C@@H](Cc1c[nH]c2ccccc12)C(=O)N[C@@H](CCC(=O)O)C(=O)N[C@@H](CS)C(=O)N[C@@H](Cc1ccc(O)cc1)C(=O)N[C@@H](Cc1c[nH]c2ccccc12)C(=O)N[C@@H](Cc1cnc[nH]1)C(=O)N[C@H](C(=O)N[C@@H](Cc1ccccc1)C(=O)NCC(N)=O)[C@@H](C)O (Ac-GGGECENWECYWHTFG-NH2) | 500 to 1000 |
| CC(C)[C@H](NC(=O)[C@H](Cc1c[nH]c2ccccc12)NC(=O)[C@H](CC(=O)O)NC(=O)[C@H](C)NC(=O)[C@H](CS)NC(=O)COCCN)C(=O)N[C@@H](CS)C(=O)N[C@@H](Cc1ccc(O)cc1)C(=O)N[C@@H](Cc1c[nH]c2ccccc12)C(=O)N[C@@H](Cc1cnc[nH]1)C(=O)N[C@H](C(=O)N[C@@H](Cc1ccccc1)C(=O)NCC(=O)O)[C@@H](C)O | > 1000 |
| C[C@@H](O)[C@H](NC(=O)[C@@H]1CCCN1C(=O)[C@@H](N)Cc1ccccc1)C(=O)N[C@@H](Cc1c[nH]c2ccccc12)C(=O)N[C@@H](CCC(=O)O)C(=O)N[C@@H](Cc1c[nH]c2ccccc12)C(=O)N[C@@H](Cc1ccc(O)cc1)C(=O)N[C@@H](Cc1c[nH]c2ccccc12)C(=O)N[C@@H](CSSC[C@H](NC(=O)[C@H](Cc1c[nH]c2ccccc12)NC(=O)[C@H](Cc1ccc(O)cc1)NC(=O)[C@H](Cc1c[nH]c2ccccc12)NC(=O)[C@H](CCC(=O)O)NC(=O)[C@H](Cc1c[nH]c2ccccc12)NC(=O)[C@@H](NC(=O)[C@@H]1CCCN1C(=O)[C@@H](N)Cc1ccccc1)[C@@H](C)O)C(=O)N[C@@H](CC(N)=O)C(=O)N[C@@H](CCCNC(=N)N)C(=O)N[C@@H](CC(=O)O)C(N)=O)C(=O)N[C@@H](CC(N)=O)C(=O)N[C@@H](CCCNC(=N)N)C(=O)N[C@@H](CC(=O)O)C(N)=O (I: H-FPTWEWYWCNRD-NH2 / II: H-FPTWEWYWCNRD-NH2; disulfide I:9-II:9) | 1000 to 10000 |
| CC(=O)N[C@@H](CS)C(=O)N[C@@H](CCC(N)=O)C(=O)N[C@H](C(=O)N[C@@H](CC(N)=O)C(=O)N[C@@H](CCC(N)=O)C(=O)N[C@@H](CS)C(=O)N[C@@H](Cc1ccc(O)cc1)C(=O)N[C@@H](Cc1c[nH]c2ccccc12)C(=O)N[C@@H](CCC(C)C)C(=O)N[C@@H](CCC(=O)O)C(=O)N[C@@H](CC(N)=O)C(=O)NCC(N)=O)[C@@H](C)O (Ac-CQTNQCYW[hLeu]ENG-NH2) | > 10000 |
| CC(=O)N[C@@H](CS)C(=O)N[C@@H](CCC(N)=O)C(=O)N[C@H](C(=O)N[C@@H](Cc1c[nH]c2ccccc12)C(=O)N[C@@H](CCC(N)=O)C(=O)N[C@@H](CS)C(=O)N[C@@H](Cc1ccc(O)cc1)C(=O)N[C@@H](Cc1c[nH]c2ccccc12)C(=O)N[C@@H](CCCNC(=N)N)C(=O)N[C@@H](CCCNC(=N)N)C(=O)N[C@@H](CC(N)=O)C(=O)NCC(=O)NCCOCC(=O)N[C@H](CCCCN)C(N)=O)[C@@H](C)O | < 500 |
| CC(=O)N[C@@H](CS)C(=O)N[C@@H](C)C(=O)N[C@@H](CC(=O)O)C(=O)N[C@@H](Cc1c[nH]c2ccccc12)C(=O)N[C@H](C(=O)N[C@@H](CS)C(=O)N[C@@H](Cc1ccc(O)cc1)C(=O)N[C@@H](Cc1c[nH]c2ccccc12)C(=O)N[C@@H](Cc1cnc[nH]1)C(=O)N[C@H](C(=O)N[C@@H](Cc1ccccc1)C(=O)NCC(=O)NCCOCCC(=O)N[C@@H](CCCCN)C(=O)O)[C@@H](C)O)C(C)C | < 500 |
| CCCCCCCCCCCCCCCC(=O)NCCCC[C@H](NC(=O)[C@H](Cc1c[nH]c2ccccc12)NC(=O)[C@@H](NC(=O)[C@H](CCC(N)=O)NC(=O)[C@H](CS)NC(C)=O)[C@@H](C)O)C(=O)N[C@@H](CS)C(=O)N[C@@H](Cc1ccc(O)cc1)C(=O)N[C@@H](Cc1c[nH]c2ccccc12)C(=O)N[C@@H](CC(C)C)C(=O)N[C@@H](CCC(=O)O)C(=O)N[C@@H](CC(N)=O)C(=O)NCC(N)=O | 30000 |

Next, values leading:

| IC50 [nM] | SMILES |
| --- | --- |
| < 500 | CC(=O)N[C@@H](CS)C(=O)N[C@@H](C)C(=O)N[C@@H](CC(=O)O)C(=O)N[C@@H](Cc1c[nH]c2ccccc12)C(=O)N[C@H](C(=O)N[C@@H](CS)C(=O)N[C@@H](Cc1ccc(O)cc1)C(=O)N[C@@H](Cc1c[nH]c2ccccc12)C(=O)N[C@@H](Cc1cnc[nH]1)C(=O)N[C@H](C(=O)N[C@@H](Cc1ccc(O)cc1)C(=O)NCC(N)=O)[C@@H](C)O)C(C)C |
| > 30000 | CC(=O)N[C@@H](CS)C(=O)N[C@@H](CCC(N)=O)C(=O)N[C@H](C(=O)N[C@@H](Cc1c[nH]c2ccccc12)C(=O)N[C@@H](CCC(N)=O)C(=O)N[C@@H](CS)C(=O)N[C@@H](Cc1ccc(O)cc1)C(=O)N[C@H](CC(=O)N[C@@H](CCCNC(=N)N)C(=O)N[C@H](C(=O)N[C@@H](CC(N)=O)C(=O)NCC(=O)NCCOCC(=O)N[C@H](CCCCN)C(N)=O)C(C)C)Cc1ccccc1)[C@@H](C)O |
| > 1000 | CC(C)[C@H](NC(=O)[C@H](Cc1c[nH]c2ccccc12)NC(=O)[C@H](CC(=O)O)NC(=O)[C@H](C)NC(=O)[C@@H](N)CS)C(=O)N[C@@H](CS)C(=O)N[C@@H](Cc1ccc(O)cc1)C(=O)N[C@@H](Cc1cccc2ccccc12)C(=O)N[C@@H](Cc1cnc[nH]1)C(=O)N(C)CC(=O)N[C@@H](Cc1ccccc1)C(=O)O |
| 6000 | N=C(N)NCCC[C@H](NC(=O)[C@H](Cc1c[nH]c2ccccc12)NC(=O)[C@H](Cc1ccc(O)cc1)NC(=O)[C@@H]1CSCCCC(=O)N[C@@H](CCC(N)=O)C(=O)N[C@@H](CC(=O)O)C(=O)N[C@@H](Cc2c[nH]c3ccccc23)C(=O)N[C@@H](CCC(N)=O)C(=O)N1)C(=O)N[C@@H](CCC(=O)O)C(=O)N[C@@H](CC(N)=O)C(=O)NCC(=O)NCCOCC(=O)N[C@H](CCCCN)C(N)=O |
| < 500 | CC(=O)N[C@@H](CS)C(=O)N[C@@H](CCC(N)=O)C(=O)N[C@H](C(=O)N[C@@H](Cc1c[nH]c2ccccc12)C(=O)N[C@@H](CCC(N)=O)C(=O)N[C@@H](CS)C(=O)N[C@@H](Cc1ccc(O)cc1)C(=O)N[C@@H](Cc1c[nH]c2ccccc12)C(=O)N[C@@H](CCCNC(=N)N)C(=O)N[C@@H](CCC(=O)O)C(=O)N[C@@H](CC(N)=O)C(=O)NCC(=O)NCCOCC(=O)N[C@H](CCCNC(=N)N)C(N)=O)[C@@H](C)O |
| 4880 | CCCCCCCCCCCCCCCC(=O)NCCCC[C@H](NC(=O)[C@H](Cc1c[nH]c2ccccc12)NC(=O)[C@H](Cc1ccc(O)cc1)NC(=O)[C@H](CS)NC(=O)[C@H](CCC(N)=O)NC(=O)[C@H](Cc1c[nH]c2ccccc12)NC(=O)[C@@H](NC(=O)[C@H](CCC(N)=O)NC(=O)[C@H](CS)NC(C)=O)[C@@H](C)O)C(=O)N[C@@H](CCC(=O)O)C(=O)N[C@@H](CC(N)=O)C(=O)NCC(N)=O |
| 25 to 100 | CC(=O)N[C@@H](CS)C(=O)N[C@@H](C)C(=O)N[C@@H](CC(=O)O)C(=O)N[C@@H](Cc1c[nH]c2ccccc12)C(=O)N[C@H](C(=O)N[C@@H](CS)C(=O)N[C@@H](Cc1ccc(O)cc1)C(=O)N[C@@H](Cc1c[nH]c2ccccc12)C(=O)N[C@@H](Cc1cnc[nH]1)C(=O)N[C@H](C(=O)N[C@@H](Cc1ccccc1)C(=O)NCC(=O)NCCOCC(=O)N[C@H](CCCCNC(=O)COCC(=O)NCCCC[C@@H](NC(=O)COCCNC(=O)CNC(=O)[C@H](Cc1ccccc1)NC(=O)[C@@H](NC(=O)[C@H](Cc1cnc[nH]1)NC(=O)[C@H](Cc1c[nH]c2ccccc12)NC(=O)[C@H](Cc1ccc(O)cc1)NC(=O)[C@H](CS)NC(=O)[C@@H](NC(=O)[C@H](Cc1c[nH]c2ccccc12)NC(=O)[C@H](CC(=O)O)NC(=O)[C@H](C)NC(=O)[C@H](CS)NC(C)=O)C(C)C)[C@@H](C)O)C(=O)O)C(=O)O)[C@@H](C)O)C(C)C |
| < 500 | CC(=O)N[C@@H](CS)C(=O)N[C@@H](CCC(N)=O)C(=O)N[C@H](C(=O)N[C@@H](Cc1c[nH]c2ccccc12)C(=O)N[C@@H](CCC(N)=O)C(=O)N[C@@H](CS)C(=O)N[C@@H](Cc1ccc(O)cc1)C(=O)N[C@@H](Cc1c[nH]c2ccccc12)C(=O)N[C@@H](CCCNC(=N)N)C(=O)N[C@@H](CN)C(=O)N[C@@H](CC(N)=O)C(=O)NCC(=O)NCCOCC(=O)N[C@H](CCCCN)C(N)=O)[C@@H](C)O |
| < 500 | CC(=O)N[C@@H](CS)C(=O)N[C@@H](C)C(=O)N[C@@H](CC(=O)O)C(=O)N[C@@H](Cc1c[nH]c2ccccc12)C(=O)N[C@H](C(=O)N[C@@H](CS)C(=O)N[C@@H](Cc1ccc(O)cc1)C(=O)N[C@@H](Cc1c[nH]c2ccccc12)C(=O)N[C@@H](Cc1cnc[nH]1)C(=O)N[C@H](C(=O)N[C@@H](Cc1ccccc1)C(=O)NCC(=O)N[C@@H](C)C(=O)N[C@H](CCCCN)C(=O)O)[C@@H](C)O)C(C)C |
